Laboratory results from patent US20060100280A1, “Cell growth regulator” (Chugai Seiyaku Kabushiki Kaisha, priority 2002, published 2006).

Assays:
[1] = system: breast cancer cell line MCF-7; experiment: Cell growth test, MTS assay, MCF-7; assay type: cell-based, human
Method: (§1) Accordingly, L-2-phenylglycine is considered to be a competitive inhibitor with strong specificity to ATB^0,+ (Hatanaka et al. 2002, J. Pharm. Pharmacol.). The present inventors prepared 20 mM L-2-phenylglycine solution by dissolving L-2-phenylglycine in a medium containing 0% FBS. IMDM was used as the medium for SW60 and HT29; and RPMI was used for MCF-7. This solution was diluted with the medium to prepare L-2-phenylglycine solutions of 2, 0.2, 0.02, and 0.002 mM.
(§2) Human colon cancer cell lines SW60 and HT29, and breast cancer cell line MCF-7 were prepared with medium to form 4×10^6, 1.6×10^6, and 1.6×10^6 cells/mL, respectively. 25 μL/well of the suspensions thus obtained (1×10^5, […], respectively) were plated onto a 96-well plate, which already contained 25 μL/well of medium comprising 12% FBS. 50 μL of L-2-phenylglycine solution was then added to each well. The cells were cultured in a 5% CO2 incubator, and surviving cell count was quantified by MTS assay on the fourth day of culturing.

[2] = system: human colon cancer cell line SW60; experiment: Cell growth test, MTS assay, SW60; assay type: cell-based; details: SW60, surviving cell count by MTS on fourth day of culturing
Method: as §1, §2

[3] = system: human colon cancer cell line HT29; experiment: Cell growth test, MTS assay, HT29; assay type: cell-based
Method: as §1, §2

[4] = target: T1, ATB^0,+ (Canis lupus familiaris, UniProt A0A8I3P2T9); details: canine small intestinal brush border membrane; Hatanaka et al. 2002, J. Pharm. Pharmacol.; cited from earlier work
T1 construct: from tissue; host or cells: canine small intestinal brush border membrane (finding quoted from Hatanaka et al. 2002, J. Pharm. Pharmacol.)
T1 sequence (A0A8I3P2T9 1-639): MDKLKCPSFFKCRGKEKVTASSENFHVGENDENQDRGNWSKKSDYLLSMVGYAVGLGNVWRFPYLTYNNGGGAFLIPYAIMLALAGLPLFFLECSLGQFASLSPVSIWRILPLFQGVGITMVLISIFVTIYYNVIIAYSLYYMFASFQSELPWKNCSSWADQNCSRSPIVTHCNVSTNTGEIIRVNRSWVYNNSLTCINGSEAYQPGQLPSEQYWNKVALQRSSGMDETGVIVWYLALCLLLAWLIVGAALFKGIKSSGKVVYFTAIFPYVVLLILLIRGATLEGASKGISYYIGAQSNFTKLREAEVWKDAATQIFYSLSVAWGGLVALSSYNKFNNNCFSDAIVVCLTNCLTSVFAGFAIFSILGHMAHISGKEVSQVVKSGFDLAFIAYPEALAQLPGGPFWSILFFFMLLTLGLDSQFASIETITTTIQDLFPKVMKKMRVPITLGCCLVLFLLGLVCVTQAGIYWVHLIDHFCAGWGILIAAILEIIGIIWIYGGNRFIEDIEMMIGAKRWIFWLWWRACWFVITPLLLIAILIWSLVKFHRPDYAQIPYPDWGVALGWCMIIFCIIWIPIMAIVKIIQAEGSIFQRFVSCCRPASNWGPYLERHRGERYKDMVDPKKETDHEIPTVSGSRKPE

With `N[C@H](C(=O)O)c1ccccc1` [L-2-phenylglycine] the Cell growth suppression ([1]; MCF-7, in the presence of 1 mM, MTS on fourth day) was “approximately 10%”, the Cell growth suppression ([1]; MCF-7, surviving cell count by MTS on fourth day of culturing) was “concentration-dependent cell growth suppression was observed” and the Cell growth suppression [2] was “could not be observed”. For the same compound, the Cell growth suppression ([3]; HT29, in the presence of 10 μM, reached equilibrium, MTS on fourth day) was “approximately 10%”, the Cell growth suppression ([3]; HT29, surviving cell count by MTS on fourth day of culturing) was “concentration-dependent cell growth suppression was observed” and the “Affinity compared with L-alanine and L-phenylalanine” value [4] was “stronger affinity”.
